Results reported in patent publication US10781181B2, “N-((het) arylmethyl)-heteroaryl-carboxamides compounds as plasma kallikrein inhibitors” (Kalvista Pharmaceuticals Limited, priority 2014, dated 2020).
Read-outs that look alike come from different tables or passages of the source.

Key:
Assay type in all cases: biochemical
Human FXIa = Human FXIa (Homo sapiens (Human), UniProt P03951); assay: Determination of the % inhibition for FXIa; conditions: read-out: % Inhibition @ 40 μM (human FXIa)
Method: Determination of the % Inhibition for FXIa
Human FXIa (Enzyme Research Laboratories) was incubated at 25° C. with the fluorogenic substrate Z-Gly-Pro-Arg-AFC and 40 μM of the test compound. Residual enzyme activity (initial rate of reaction) was determined by measuring the change in […].

Human plasma kallikrein = Human plasma kallikrein (Homo sapiens (Human), UniProt P03952); assay: Determination of the IC50 for plasma kallikrein; conditions: read-out: IC50 (human PKal)
Method: Determination of the IC50 for Plasma Kallikrein
(§1) Human plasma kallikrein (Protogen) was incubated at 25° C. with the fluorogenic substrate H-DPro-Phe-Arg-AFC and various concentrations of the test compound. Residual enzyme activity (initial rate of reaction) was determined by measuring the change in […] at 410 nm and the IC50 value for the test compound was determined.

Human KLK1 = Human KLK1 (Homo sapiens (Human), UniProt P06870); assay: Determination of the IC50 for KLK1; conditions: human KLK1, 25° C., substrate H-DVal-Leu-Arg-AFC
Method: Determination of the IC50 for KLK1
as §1, with “KLK1 (Callbiochem)” for “plasma kallikrein (Protogen)”, “H-DVal-Leu-Arg-AFC” for “H-DPro-Phe-Arg-AFC”

[1] = 40 μM of the test compound, human FXIa, 25° C.

Chain of Human FXIa (P03951 388-625 limits assumed): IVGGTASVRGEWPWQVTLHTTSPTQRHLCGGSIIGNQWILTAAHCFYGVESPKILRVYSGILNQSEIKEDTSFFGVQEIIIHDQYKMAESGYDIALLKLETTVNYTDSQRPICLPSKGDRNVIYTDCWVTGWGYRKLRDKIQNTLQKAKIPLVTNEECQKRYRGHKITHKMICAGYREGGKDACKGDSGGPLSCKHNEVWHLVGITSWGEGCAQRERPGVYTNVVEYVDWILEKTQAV
Chain of Human FXIa (P03951 19-387 partner limits assumed): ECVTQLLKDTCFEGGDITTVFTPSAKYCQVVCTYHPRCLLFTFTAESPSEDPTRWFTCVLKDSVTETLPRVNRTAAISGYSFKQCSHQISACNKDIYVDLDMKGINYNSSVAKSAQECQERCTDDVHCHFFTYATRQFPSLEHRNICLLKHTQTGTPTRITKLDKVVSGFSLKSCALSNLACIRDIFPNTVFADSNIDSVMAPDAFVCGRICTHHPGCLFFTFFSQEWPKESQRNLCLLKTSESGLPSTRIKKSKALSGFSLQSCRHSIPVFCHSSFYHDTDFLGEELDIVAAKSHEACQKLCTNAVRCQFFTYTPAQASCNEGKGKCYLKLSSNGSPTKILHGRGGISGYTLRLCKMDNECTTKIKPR
Chain of Human KLK1 (P06870 25-262): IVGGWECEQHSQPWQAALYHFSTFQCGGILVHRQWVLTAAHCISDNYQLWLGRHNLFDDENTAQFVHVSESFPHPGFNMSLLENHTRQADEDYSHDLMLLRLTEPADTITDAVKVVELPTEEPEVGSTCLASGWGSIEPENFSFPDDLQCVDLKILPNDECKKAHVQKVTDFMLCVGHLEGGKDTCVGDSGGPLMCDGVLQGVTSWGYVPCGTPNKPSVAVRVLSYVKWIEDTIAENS
Chain of Human plasma kallikrein (P03952 391-638): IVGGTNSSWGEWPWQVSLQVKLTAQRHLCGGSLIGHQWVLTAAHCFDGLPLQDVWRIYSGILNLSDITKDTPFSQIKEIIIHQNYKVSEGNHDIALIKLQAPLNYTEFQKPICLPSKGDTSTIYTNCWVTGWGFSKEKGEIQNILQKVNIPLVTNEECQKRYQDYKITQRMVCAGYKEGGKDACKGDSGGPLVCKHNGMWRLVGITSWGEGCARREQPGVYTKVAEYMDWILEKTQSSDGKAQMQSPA
Chain of Human plasma kallikrein (P03952 20-390 partner): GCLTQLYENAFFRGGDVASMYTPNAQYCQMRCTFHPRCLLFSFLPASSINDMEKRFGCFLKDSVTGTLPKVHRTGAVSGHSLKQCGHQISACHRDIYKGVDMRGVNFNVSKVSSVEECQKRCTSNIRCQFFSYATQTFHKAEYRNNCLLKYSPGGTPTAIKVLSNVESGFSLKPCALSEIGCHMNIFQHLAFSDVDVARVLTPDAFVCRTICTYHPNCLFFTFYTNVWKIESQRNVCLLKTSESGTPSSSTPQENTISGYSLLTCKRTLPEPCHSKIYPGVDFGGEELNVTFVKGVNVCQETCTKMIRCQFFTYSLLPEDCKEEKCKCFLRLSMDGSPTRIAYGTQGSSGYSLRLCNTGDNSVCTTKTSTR

Row | inhibition at 40 µM (Human FXIa; [1]) | IC50 (Human plasma kallikrein) | IC50 (Human KLK1) | SMILES | inhibition at 40 µM (Human FXIa)
1 | 0% | 2.93 µM | > 40 µM | Nc1nn(Cc2ccc(Cn3ccccc3=O)cc2)cc1C(=O)NCCOc1cccc(Cl)c1Cl [Example 29, 3-amino-N-[2-(2,3-dichlorophenoxy}ethyl]-1-({4-[(2-oxopyridin-1-yl)methyl]phenyl}methyl)pyrazole-4-carboxamide] | 
2 | 2% | > 10 µM | > 10 µM | Nc1nn(Cc2ccc3[nH]ncc3c2)cc1C(=O)NCCOc1cccc(Cl)c1 [Example 92, 3-amino-N-[2-(3-chlorophenoxy)ethyl]-1-(1H-indazol-5-ylmethyl)pyrazole-4-carboxamide] | 
3 | 67% | 0.245 µM | > 40 µM | Cc1ccc2cc(Cn3cc(C(=O)NCCOc4cccc(Cl)c4)c(N)n3)ccc2n1 [Example 54, 3-amino-N-[2-(3-chlorophenoxy)ethyl]-1-[(2-methylquinolin-6-yl)methyl]pyrazole-4-carboxamide] | 
4 | 2% | 0.0029 µM | > 10 µM | Nc1nn(Cc2ccc(Cn3ccccc3=O)cc2)cc1C(=O)NCCOc1cccc(Cl)c1 [Example 1] | 
5 | 3% | 0.316 µM | > 40 µM | C[C@H](COc1cccc(Cl)c1)NC(=O)c1cn(Cc2ccc(Cn3ccccc3=O)cc2)nc1N [Example 113, 3-amino-N-[(2R)-1-(3-chlorophenoxy)propan-2-yl]-1-({4-[(2-oxopyridin-1-yl)methyl]phenyl}methyl)pyrazole-4-carboxamide] | 
6 | 0% | 9.18 µM | > 40 µM | Nc1nn(Cc2ccc(-n3cccn3)nc2)cc1C(=O)NCCOc1cccc(Cl)c1 [Example 88, 3-amino-N-[2-(3-chlorophenoxy)ethyl]-1-{[6-(pyrazol-1-yl)pyridin-3-yl]methyl}pyrazole-4-carboxamide] | 
7 | 0% | 0.384 µM | > 40 µM | Nc1nn(Cc2ccc(Cn3ccccc3=O)cc2)cc1C(=O)N[C@H]1CCN(Cc2cccc(Cl)c2)C1 [Example 109, 3-amino-N-[(3S)-1-[(3-chlorophenyl)methyl]pyrrolidin-3-yl]-1-({4-[(2-oxopyridin-1-yl)methyl]phenyl}methyl)pyrazole-4-carboxamide] | 
8 | 47% | 0.646 µM | > 40 µM | Nc1nn(Cc2ccc(Cn3ccccc3=O)cc2)cc1C(=O)NCCOc1cc(Cl)cc(Cl)c1 [Example 31, 3-amino-N-[2-(3,5-dichlorophenoxy)ethyl]-1-({4-[(2-oxopyridin-1-yl)methyl]phenyl}methyl)pyrazole-4-carboxamide] | 
9 | 0% | 0.161 µM | > 40 µM | Cc1ccc(Cl)cc1OCCNC(=O)c1cn(Cc2ccc(Cn3ccccc3=O)cc2)nc1N [Example 14, 3-amino-N-[2-(5-chloro-2-methylphenoxy)ethyl]-1-({4-[(2-oxopyridin-1-yl)methyl]phenyl}methyl)pyrazole-4-carboxamide] | 
10 | 29% | 7.46 µM | > 40 µM | Nc1nn(Cc2ccc(Cn3ccccc3=O)cc2)cc1C(=O)N[C@H]1CCN(c2cc(Cl)ccn2)C1 [Example 112, 3-amino-N-[(3S)-1-(4-chloropyridin-2-yl)pyrrolidin-3-yl]-1-({4-[(2-oxopyridin-1-yl)methyl]phenyl}methyl)pyrazole-4-carboxamide] | 
11 | 0% | 0.266 µM | > 10 µM | COCc1nn(Cc2ccc(Cn3ccccc3=O)cc2)cc1C(=O)NCCOc1ccc(F)c(Cl)c1 [Example 12, N-[2-(3-chloro-4-fluorophenoxy)ethyl]-3-(methoxymethyl)-1-({4-[(2-oxopyridin-1-yl)methyl]phenyl}methyl)pyrazole-4-carboxamide] | 
12 | 0% | 0.231 µM | > 10 µM | COCc1nn(Cc2ccc(Cn3cc(C)cn3)cc2)cc1C(=O)NCCOc1cccc(Cl)c1 [Example 27, N-[2-(3-chlorophenoxy)ethyl]-3-(methoxymethyl)-1-({4-[(4-methylpyrazol-1-yl)methyl]phenyl}methyl)pyrazole-4-carboxamide] | 
13 | 0% | 0.264 µM | > 40 µM | CN(CCNC(=O)c1cn(Cc2ccc(Cn3ccccc3=O)cc2)nc1N)c1cccc(Cl)c1 [Example 41, 3-amino-N-{2-[(3-chlorophenyl)(methyl)amino]ethyl}-1-({4-[(2-oxopyridin-1-yl)methyl]phenyl}methyl)pyrazole-4-carboxamide] | 
14 | 4% | 6.93 µM | > 40 µM | CNC(=O)CNc1ccc(Cn2cc(C(=O)NCCOc3cccc(Cl)c3)c(N)n2)cn1 [Example 78, 3-amino-N-[2-(3-chlorophenoxy)ethyl]-1-[(6-{[(methylcarbamoyl)methyl]amino}pyridin-3-yl)methyl]pyrazole-4-carboxamide] | 
15 | 0% | 0.39 µM | > 40 µM | C[C@H](NC(=O)c1cn(Cc2ccc(Cn3ccccc3=O)cc2)nc1N)C(=O)N(C)c1cccc(Cl)c1 [Example 116, (2S)-2-{[3-amino-1-({4-[(2-oxopyridin-1-yl)methyl]phenyl}methyl)pyrazol-4-yl]formamido}-N-(3-chlorophenyl)-N-methylpropanamide] | 
16 | 0% | 0.299 µM | > 40 µM | Nc1nn(Cc2ccc(Cn3ccccc3=O)cc2)cc1C(=O)N[C@@H]1CCN(Cc2cccc(Cl)c2)C1 [Example 108, 3-amino-N-[(3R)-1-[(3-chlorophenyl)methyl]pyrrolidin-3-yl]-1-({4-[(2-oxopyridin-1-yl)methyl]phenyl}methyl)pyrazole-4-carboxamide] | 
17 | 0% | 4.92 µM | > 40 µM | Nc1nn(Cc2ccnc(-n3cccn3)c2)cc1C(=O)NCCOc1cccc(Cl)c1 [Example 66, 3-amino-N-[2-(3-chlorophenoxy)ethyl]-1-{[2-(pyrazol-1-yl)pyridin-4-yl]methyl}pyrazole-4-carboxamide] | 
18 | 32% | 0.0301 µM | > 40 µM | Nc1nn(Cc2ccc(Cn3ccccc3=O)cc2)cc1C(=O)NCCNc1cc(Cl)ccn1 [Example 47, 3-amino-N-{2-[(4-chloropyridin-2-yl)amino]ethyl}-1-({4-[(2-oxopyridin-1-yl)methyl]phenyl}methyl)pyrazole-4-carboxamide] | 
19 | 4% | 3.02 µM | > 40 µM | C[C@@H](NC(=O)c1cn(Cc2ccc(Cn3ccccc3=O)cc2)nc1N)C(=O)N(C)c1cccc(Cl)c1 [Example 117, (2R)-2-{[3-amino-1-({4-[(2-oxopyridin-1-yl)methyl]phenyl}methyl)pyrazol-4-yl]formamido}-N-(3-chlorophenyl)-N-methylpropanamide] | 
20 | 59% | 0.326 µM | > 40 µM | Nc1nn(Cc2ccnc(N3CCCC3)c2)cc1C(=O)NCCOc1cccc(Cl)c1 [Example 50, 3-amino-N-[2-(3-chlorophenoxy)ethyl]-1-{[2-(pyrrolidin-1-yl)pyridin-4-yl]methyl}pyrazole-4-carboxamide] | 
21 | 4% | > 10 µM | > 40 µM | CNC(=O)CN(C)c1cc(Cn2cc(C(=O)NCCOc3cccc(Cl)c3)c(N)n2)ccn1 [Example 74, 3-amino-N-[2-(3-chlorophenoxy)ethyl]-1-[(2-{methyl[(methylcarbamoyl)methyl]amino}pyridin-4-yl)methyl]pyrazole-4-carboxamide] | 
22 | 0% | 0.0032 µM | > 40 µM | Nc1nn(Cc2ccc(Cn3ccccc3=O)cc2)cc1C(=O)NCCCc1cccc(Cl)c1 [Example 42, 3-amino-N-[3-(3-chlorophenyl)propyl]-1-({4-[(2-oxopyridin-1-yl)methyl]phenyl}methyl)pyrazole-4-carboxamide] | 
23 | 0% | 2.07 µM | > 40 µM | Nc1nn(Cc2ccc(Oc3ccccc3)cc2)cc1C(=O)NCCOc1cccc(Cl)c1 [Example 71, 3-amino-N-[2-(3-chlorophenoxy)ethyl]-1-[(4-phenoxyphenyl)methyl]pyrazole-4-carboxamide] | 
24 | 0% | 7.25 µM | > 40 µM | CNC(=O)c1ccc(Cn2cc(C(=O)NCCOc3cccc(Cl)c3)c(N)n2)cc1 [Example 61, 3-amino-N-[2-(3-chlorophenoxy)ethyl]-1-{[4-(methylcarbamoyl)phenyl]methyl}pyrazole-4-carboxamide] | 

Row | SMILES | inhibition at 40 µM (Human FXIa; [1]) | IC50 (Human plasma kallikrein) | IC50 (Human KLK1) | inhibition at 40 µM (Human FXIa)
25 | Nc1nn(Cc2ccc(Br)cc2)cc1C(=O)NCCOc1cccc(Cl)c1 [Example 55, 3-amino-1-[(4-bromophenyl)methyl]-N-[2-(3-chlorophenoxy)ethyl]pyrazole-4-carboxamide] |  | 6.41 µM | > 40 µM | 80%
26 | Nc1nn(Cc2ccc(C(=O)O)cc2)cc1C(=O)NCCOc1cccc(Cl)c1 [Example 69, 4-[(3-amino-4-{[2-(3-chlorophenoxy)ethyl]carbamoyl}pyrazol-1-yl)methyl]benzoic acid] |  | > 10 µM | > 40 µM | 0%
27 | Nc1nn(Cc2cccc(Br)c2)cc1C(=O)NCCOc1cccc(Cl)c1 [Example 56, 3-amino-1-[(3-bromophenyl)methyl]-N-[2-(3-chlorophenoxy)ethyl]pyrazole-4-carboxamide] |  | 8.49 µM | > 40 µM | 0%
